Measured values published in ChEMBL document CHEMBL3351412, “Design, synthesis and biological evaluation of β-boswellic acid based HDAC inhibitors as inducers of cancer cell death” (Bioorg Med Chem Lett, 2014).
The source made the active and inactive calls. The calls are words filed in the database; no cut-off is given here.

How the values were obtained:
HL-60 [1] = test: Induction of apoptosis in human HL60 cells assessed as loss of mitochondrial membrane potential in P5 quadrant at 1 uM by Rhodamine123 assay (reference value: 3.4%); format: functional
HL-60 [2] = test: Induction of apoptosis in human HL60 cells assessed as loss of mitochondrial membrane potential in P4 quadrant at 5 uM by Rhodamine123 assay (reference value: 96.6%); format: functional
[3] = Cytotoxicity against human HCT116 cells; format: functional, cell-based; conditions: HCT-116
[4] = target: T1, Histone deacetylase (Homo sapiens) (UniProt Q13547+O15379+Q9UBN7+Q92769+Q9UQL6+Q8WUI4+Q9BY41+Q96DB2+P56524+Q9UKV0+Q969S8); test: Inhibition of HDAC (unknown origin) at 50 uM; format: protein assay
[5] = Cell cycle arrest in human HL60 cells assessed as accumulation at G1 phase at 5 uM by propidium iodide staining-based flow cytometry (reference value: 58.9%); format: functional; conditions: HL-60
[6] = Cytotoxicity against human HL60 cells; format: functional, cell-based; conditions: HL-60
[7] = Cell cycle arrest in human HL60 cells assessed as accumulation at G1 phase at 1 uM by propidium iodide staining-based flow cytometry (reference value: 58.9%); format: functional; conditions: HL-60
[8] = Cell cycle arrest in human HL60 cells assessed as accumulation at sub-G1 phase at 1 uM by propidium iodide staining-based flow cytometry (reference value: 2.1%); format: functional; conditions: HL-60
Histone deacetylase = test: Inhibition of HDAC (unknown origin); format: protein assay, Homo sapiens
[9] = Cytotoxicity against human MIAPaCa2 cells; format: functional, cell-based; conditions: MIA PaCa-2
[10] = Cell cycle arrest in human HL60 cells assessed as accumulation at S phase at 1 uM by propidium iodide staining-based flow cytometry (reference value: 17.3%); format: functional; conditions: HL-60
HL-60 [11] = test: Induction of apoptosis in human HL60 cells assessed as loss of mitochondrial membrane potential in P5 quadrant at 5 uM by Rhodamine123 assay (reference value: 3.4%); format: functional
MCF7 = test: Cytotoxicity against human MCF7 cells; format: functional, cell-based
HL-60 [12] = test: Induction of apoptosis in human HL60 cells assessed as loss of mitochondrial membrane potential in P4 quadrant at 1 uM by Rhodamine123 assay (reference value: 96.6%); format: functional
A549 = test: Cytotoxicity against human A549 cells; format: functional, cell-based
[13] = target: T1, Histone deacetylase (Homo sapiens); test: Inhibition of HDAC (unknown origin) at 30 uM; format: protein assay
[14] = Cell cycle arrest in human HL60 cells assessed as accumulation at S phase at 5 uM by propidium iodide staining-based flow cytometry (reference value: 17.3%); format: functional; conditions: HL-60
[15] = Cell cycle arrest in human HL60 cells assessed as accumulation at G2/M phase at 1 uM by propidium iodide staining-based flow cytometry (reference value: 21.3%); format: functional; conditions: HL-60
[16] = Cytotoxicity against human FR2 cells; format: cell-based
[17] = Cell cycle arrest in human HL60 cells assessed as accumulation at G2/M phase at 5 uM by propidium iodide staining-based flow cytometry (reference value: 21.3%); format: functional; conditions: HL-60
[18] = Cell cycle arrest in human HL60 cells assessed as accumulation at sub-G1 phase at 5 uM by propidium iodide staining-based flow cytometry (reference value: 2.1%); format: functional; conditions: HL-60
[19] = target: T1, Histone deacetylase (Homo sapiens); test: Inhibition of HDAC (unknown origin) at 20 uM; format: protein assay
[20] = Cell cycle arrest in human HL60 cells at 5 to 10 uM by propidium iodide staining-based flow cytometry; format: functional; conditions: HL-60
[21] = target: T1, Histone deacetylase (Homo sapiens); test: Inhibition of HDAC (unknown origin) at 1 uM; format: protein assay
[22] = target: T1, Histone deacetylase (Homo sapiens); test: Inhibition of HDAC (unknown origin) at 10 uM; format: protein assay

SMILES | Activity (HL-60 [1]) [%] | Activity (HL-60 [2]) [%] | IC50 [3] [µM] | inhibition [4] [%] | Activity [5] [%] | IC50 [6] [µM] | Activity [7] [%] | Activity [8] [%] | IC50 (Histone deacetylase) [µM] | IC50 [9] [µM] | Activity [10] [%] | Activity (HL-60 [11]) [%] | IC50 (MCF7) [µM] | Activity (HL-60 [12]) [%] | IC50 (A549) [µM] | inhibition [13] [%] | Activity [14] [%] | Activity [15] [%] | IC50 [16] [µM] | Activity [17] [%] | also measured
C[C@H]1[C@H](C)CC[C@]2(C)CC[C@]3(C)C(=CC[C@@H]4[C@@]5(C)CC[C@@H](O)[C@](C)(NC(=O)CCCCCCC(=O)NO)[C@@H]5CC[C@]43C)[C@H]12 | 3.2 | 70.2 | > 20 | 56 | 60.6 | > 20 | 57.8 | 7.4 | 30 | > 20 | 16.8 | 29.8 | > 20 | 96.8 | > 20 | 50 | 15.7 | 16.8 | > 20 | 18.6 | Activity [18]: 4.5%
C[C@H]1[C@H](C)CC[C@]2(C)CC[C@]3(C)C(=CC(=O)[C@@H]4[C@@]5(C)CC[C@@H](O)[C@](C)(NC(=O)CCCC(=O)NO)[C@@H]5CC[C@]43C)[C@H]12 | 6.7 | 3.6 | 15.1 | 88 | 7.2 | 1.6 | 74.5 | 6.1 | 6 | 15.1 | 8 | 96.4 | 7.1 | 93.3 | 13 | 86 | 0.7 | 10.7 | 1.9 | 7.1 | inhibition [19]: 70%; Activity [20]: Active; inhibition [21]: 23%; inhibition [22]: 65%; Activity [18]: 92.2%
